Assay results from publication PMC5931107, “Clinical pharmacodynamic/exposure characterisation of the multikinase inhibitor ilorasertib (ABT-348) in a phase 1 dose-escalation trial” (British Journal of Cancer, 2018).
Marks after values point to notes of the source that are not given here.

Assay: Plasma pharmacokinetics, Arm II (oral BID), phase 1 trial
Type: in vivo, human
Description: Pharmacokinetics of ilorasertib were evaluated in the dose-escalation cohort on blood samples that were collected on cycle 1 days 1 and 15. Parameters determined: Cmax, time to Cmax (Tmax), terminal phase elimination half-life (t1/2), clearance, apparent oral clearance (CL/F), and area under the plasma concentration-time curve from time 0 to time of last measurable concentration (AUCt) and from time 0 to infinity (AUC∞). For Arm I, blood samples were collected prior to dosing and at 0.5, 1, 2, 3, 4, 6, 8, 10 or 12, and 24 h after dosing on cycle 1 days 1 and 15; of note, for institutions not able to collect the 10- or 12-h post-dose sample, the 24-h sample was replaced with 22-h and 28-h post-dose samples. In Arm II, for the first dose, blood samples were collected pre-dose and at 1, 2, 3, and 4 h post-dose on cycle 1 days 1 and 15; for the second dose, samples were collected pre-dose and at 1, 2, 3, 4, 18, and 24 h after second dose on cycle 1 days 1 and 15. In Arm III, blood samples were collected prior to infusion, at 1 h 55 min (just before end of infusion), and at 0.5, 1, 2, 4, 6, 8, 10, and 24 h after end of infusion on cycle 1 days 1 and 15; here also, for institutions not able to collect the 8-h or 10-h after-end-of-infusion samples, the 24-h sample was replaced with 22-h and 28-h post-dose samples. The liquid chromatography (LC)-mass spectrometry (MS)/MS method was developed and validated in the Bioanalysis Department of AbbVie. Fifty microliter of human plasma (K2EDTA as anticoagulant) was fortified with 300 μL of deuterium-stable labelled internal standard and mixed well. A HybridSPE precipitation plate (50 mg/96 wells, Supelco Analytical, Munich, Germany) was used to directly load and elute (under slight vacuum) the fortified samples into a clean collection plate. Samples were dried before reconstitution with 100 μL of 20/80 (v/v) acetonitrile/water, and injected for LC-MS/MS analysis. A Halo C8 (Wilmington, DE, USA; 2.7 μm, 2.1 × 30 mm) was used on an Agilent 1290 Infinity UPLC pump (Agilent Technologies, Santa Clara, CA) to carry out the separation. An isocratic condition with 25/75/0.1 (v/v/v) acetonitrile/water/98% formic acid was used as the mobile phase. The flow rate was set to be 0.6 mL/min. An MPS 3 C ([…] Ruhr, Germany) autosampler was used to introduce samples onto the UPLC system. An API 4000 mass spectrometer (Applied Biosystems, Foster City, CA) was used in the multiple reactions monitoring mode for the detection and quantitation of analyte. Descriptive statistics were used for demographic variables. The numbers and percentages of patients with treatment-emergent AEs (TEAEs) were tabulated using the Medical Dictionary for Regulatory Activities version 16.0 system organ class and preferred term, and further classified according to CTCAE version 4.0 criteria. The safety data set included all patients who received one or more doses of ilorasertib. The pharmacokinetic data set included all patients who received one or more doses of ilorasertib and had one or more pharmacokinetic samples. Values for pharmacokinetic parameters were determined using non-compartmental methods, with data analysed separately for each arm. A repeated measures analysis was performed for Tmax and dose-normalised Cmax, AUCt, and AUC∞. The model included random effects for patient and fixed effects for dose level, day, and the interaction of dose level and day. To assess effects of exposure on pharmacodynamic biomarkers, Cmax was employed as the directly measured marker of exposure for the rapid changes in DBP and PlGF pre-steady-state, while AUC∞ reflected exposure variability at the time of post-multiple-dose skin biopsy. Descriptive statistics were used to summarise ECOG performance status. The efficacy data set included all patients who received one or more doses of ilorasertib.

[1] = Arm II PO BID 40 mg, day 1, N=2, mean (individual)
[2] = Arm II PO BID 40 mg, day 15, N=3
[3] = Arm II PO BID 60 mg, day 1, N=3
[4] = Arm II PO BID 60 mg, day 15, N=1
[5] = Arm II PO BID 60 mg, day 15, N=3
[6] = Arm II PO BID 90 mg, day 1, N=2, mean (individual)
[7] = Arm II PO BID 90 mg, day 1, N=3
[8] = Arm II PO BID 90 mg, day 15, N=2, mean (individual)
[9] = Arm II PO BID 90 mg, day 15, N=3
[10] = Arm II PO BID 130 mg, day 1, N=3
[11] = Arm II PO BID 130 mg, day 1, N=4
[12] = Arm II PO BID 130 mg, day 15, N=1
[13] = Arm II PO BID 130 mg, day 15, N=3
[14] = Arm II PO BID 190 mg, day 1, N=4
[15] = Arm II PO BID 190 mg, day 1, N=7
[16] = Arm II PO BID 190 mg, day 15, N=2, mean (individual)
[17] = Arm II PO BID 190 mg, day 15, N=5
[18] = Arm II PO BID 230 mg, day 1, N=2, mean (individual)
[19] = Arm II PO BID 230 mg, day 1, N=3
[20] = Arm II PO BID 230 mg, day 15, N=1
[21] = Arm II PO BID 230 mg, day 15, N=4
[22] = Arm II PO BID 340 mg, day 1, N=1
[23] = Arm II PO BID 340 mg, day 1, N=3
[24] = Arm II PO BID 340 mg, day 15, N=1
[25] = Arm II PO BID all doses, day 1, N=14
[26] = Arm II PO BID all doses, day 1, N=26
[27] = Arm II PO BID all doses, day 15, N=7
[28] = Arm II PO BID all doses, day 15, N=22

With `Nc1ncc(-c2cnn(CCO)c2)c2scc(-c3ccc(NC(=O)Nc4cccc(F)c4)cc3)c12` [ilorasertib, Ilorasertib] the “AUC∞/dose” value [1] was 49.9 (35.6, 64.1)^b ng•h/mL/mg, the CL/F [1] was 21.8 (28.1, 15.6)^b L/h and the AUCt/dose (Arm II PO BID 40 mg, day 1, N=3) was 46.5 ± 20.5 ng·h/mL/mg. It also gave an AUCt/dose [2] of 46.9 ± 25.6 ng·h/mL/mg, a Cmax/dose [2] of 2.4 ± 1.3 ng/mL/mg and an AUCt/dose [3] of 45.4 ± 12.2 ng·h/mL/mg. For the same compound, the Cmax/dose [3] was 3.2 ± 1.2 ng/mL/mg, the “AUC∞/dose” value [4] was 45.3^b ng•h/mL/mg and the CL/F [4] was 22.1^b L/h. The AUCt/dose [5] was 24.3 ± 5.9 ng·h/mL/mg, the Cmax/dose [5] was 1.9 ± 0.47 ng/mL/mg and the “AUC∞/dose” value [6] was 22.4 (14.1, 30.6)^b ng•h/mL/mg. The CL/F [6] was 51.7 (70.7, 32.6)^b L/h, the AUCt/dose [7] was 21.8 ± 8.5 ng·h/mL/mg and the Cmax [7] was 300 ± 100 ng/mL. The Cmax/dose [7] was 1.7 ± 0.6 ng/mL/mg, the “AUC∞/dose” value [8] was 29.6 (41.1, 18.1)^c ng•h/mL/mg and the CL/F [8] was 39.8 (24.3, 55.2)^c L/h. For the same compound, the “t1/2 (harmonic mean)” value [8] was 16.2 (23.4, 12.4)^c h, the AUCt/dose [9] was 22.5 ± 8.4 ng·h/mL/mg and the Cmax/dose [9] was 1.8 ± 0.54 ng/mL/mg. For the same compound, the “AUC∞/dose” value [10] was 25.1 ± 17.2^c ng•h/mL/mg, the CL/F [10] was 51.5 ± 25.9^c L/h and the AUCt/dose [11] was 19.5 ± 12.2 ng·h/mL/mg. For the same compound, the Cmax/dose [11] was 2.3 ± 1.5 ng/mL/mg, the “AUC∞/dose” value [12] was 15.2^b ng•h/mL/mg and the CL/F [12] was 65.7^b L/h. For the same compound, the AUCt/dose [13] was 9.2 ± 5.0 ng·h/mL/mg, the Cmax/dose [13] was 1.0 ± 1.1 ng/mL/mg and the “AUC∞/dose” value [14] was 46.8 ± 29.7^d ng•h/mL/mg. The CL/F [14] was 29.6 ± 17.9^d L/h, the “t1/2 (harmonic mean)” value [14] was 13.7 ± 9.0^d h and the AUCt [15] was 8100 ± 4440 ng·h/mL. The AUCt/dose [15] was 21.3 ± 11.7 ng·h/mL/mg, the Cmax/dose [15] was 1.4 ± 0.8 ng/mL/mg and the “AUC∞/dose” value [16] was 28.0 (20.9, 35.2)^c ng•h/mL/mg. The CL/F [16] was 38.1 (47.8, 28.4)^c L/h, the AUCt/dose [17] was 17.6 ± 13.7 ng·h/mL/mg and the Cmax/dose [17] was 1.7 ± 1.0 ng/mL/mg. For the same compound, the “AUC∞/dose” value [18] was 19.9 (18.1, 21.7)^b ng•h/mL/mg, the CL/F [18] was 50.8 (55.4, 46.1)^b L/h and the AUCt/dose [19] was 21.9 ± 7.9 ng·h/mL/mg. The Cmax/dose [19] was 1.5 ± 0.5 ng/mL/mg, the “AUC∞/dose” value [20] was 28.2^b ng•h/mL/mg and the CL/F [20] was 35.5^b L/h. The AUCt/dose [21] was 24.4 ± 9.4 ng·h/mL/mg, the Cmax/dose [21] was 1.7 ± 1.0 ng/mL/mg and the “AUC∞/dose” value [22] was 145^e ng•h/mL/mg. For the same compound, the CL/F [22] was 6.9^e L/h, the AUCt/dose [23] was 57.8 ± 21.8 ng·h/mL/mg and the Cmax/dose [23] was 3.0 ± 1.3 ng/mL/mg. The AUCt/dose [24] was 23.0 ng·h/mL/mg, the Cmax/dose [24] was 1.1 ng/mL/mg and the “AUC∞/dose” value [25] was 42.3 ± 36.5^f ng•h/mL/mg. For the same compound, the CL/F [25] was 37.7 ± 21.8^f L/h, the “t1/2 (harmonic mean)” value [25] was 13.0 ± 6.2^f h and the AUCt/dose [26] was 31.1 ± 18.8 ng·h/mL/mg. The Cmax/dose [26] was 2.2 ± 1.2 ng/mL/mg, the “AUC∞/dose” value [27] was 29.1 ± 11.7^d ng•h/mL/mg and the CL/F [27] was 39.9 ± 16.7^d L/h. The “t1/2 (harmonic mean)” value [27] was 9.9 ± 3.7^d h, the AUCt/dose [28] was 23.5 ± 15.5 ng·h/mL/mg and the Cmax/dose [28] was 1.7 ± 0.9 ng/mL/mg.
